Our source for the IC50 and melting point values is patent publication US8067442B2, “Heterocyclic antiviral compounds” (Roche Palo Alto LLC, priority 2008, dated 2011).

The target of data set [1] is T1, HCV polymerase (NS5B570n-Con1) (Hepatitis C virus genotype 1b, UniProt Q9WMX2).
T1 construct: a 21 amino acid C-terminal deletion of full-length HCV polymerase; made in house; host or cells: E. coli BL21(DE3) pLysS, plasmid pET17b
As to the kind of experiment: biochemical. The arrangement: species or system HCV Con1 strain. As for the experimental part:
The enzymatic activity of HCV polymerase (NS5B570n-Con1) was measured as the incorporation of radiolabeled nucleotide monophosphates into acid insoluble RNA products. Unincorporated radiolabeled substrate was removed by filtration and scintillant was added to the washed and dried filter plate containing radiolabeled RNA product. The amount of RNA product generated by NS5B570n-Con1 at the end of the reaction was directly proportional to the amount of light emitted by the scintillant.
The HCV polymerase used in the enzymatic activity assay is a 21 amino acid C-terminal deletion of full-length HCV polymerase derived from HCV Con1 strain, genotype 1b (GenBank accession number AJ242654) (NS5B570n-Con1). The NS5B570n-Con1 was sub-cloned downstream to the T7 promoter of the plasmid expression construct pET17b and transformed into E. coli strain BL21(DE3) pLysS for protein expression. A single colony was used to start an innoculum for a 10 L culture in LB media supplemented with 100 μg/mL ampicillin at 37° C. Protein expression was induced by the addition of 0.25 mM isopropyl-β-D-thiogalactopyranoside (IPTG) when the optical density of the culture at […] was 0.8. Induction of protein expression was carried out at 30° C. for 16 h after which the cells were harvested by centrifugation. NS5B570n-Con1 was purified to homogeneity using a three-column purification protocol including subsequent column chromatography on Ni-NTA, SP-Sepharose HP and Superdex 75 resins.
Enzymatic reactions in the presence of cIRES RNA template (see section [0300]) contained 20 nM cIRES RNA, 20 nM NS5B570n-Con1 enzyme, 0.5 μCi of tritiated UTP (Perkin Elmer catalog no. TRK-412; specific activity: 30 to 60 Ci/mmol), 1 μM each ATP, CTP, and GTP, 40 mM Tris-HCl pH 8.0, 40 mM NaCl, 4 mM DTT (dithiothreitol), 4 mM MgCl2, 5 μl of compound serial diluted in DMSO, and nuclease-free water to a final reaction volume of 50 μl. Enzymatic reactions in the presence of 20 nM cIRES template, 20 nM NS5B570n-Con1 enzyme, 1 μCi of tritiated UTP (Perkin Elmer catalog no. TRK-412; specific activity: 30 to 60 Ci/mmol), 40 mM Tris-HCl pH 8.0, 40 mM NaCl, 4 mM DTT (dithiothreitol), 4 mM MgCl2, 5 μl of compound serial diluted in DMSO, and nuclease-free water to a final reaction volume of 50 μl. Reaction mixtures were assembled in 96-well filter plates (cat #MADVNOB, Millipore Co.) and incubated for 2 h at 30° C. Reactions were stopped by addition of 10% final (v/v) trichloroacetic acid and incubated for 40 min at 4° C. Reactions were filtered, washed with 8 reaction volumes of 10% (v/v) trichloroacetic acetic acid, 4 reaction volumes of 70% (v/v) ethanol, air dried, and 25 μl of scintillant (Microscint 20, Perkin-Elmer) was added to each reaction well.
Two RNA templates can be used to assay compounds described herein. The cIRES RNA template is 377 nucleotide long and consisting of a partial complementary sequence (36 nucleotides) of the core protein, followed by 341 nucleotide of the complementary sequence of the internal ribosome entry site. The poly A RNA template (GE Amersham catalog number 27-4110) was a homopolymeric RNA pre-annealed to a oligo(rU)16 primer at a molar ratio of 3-to-1 (primer-template). The cIRES template was used in the assay unless otherwise noted.
The amount of light emitted from the scintillant was converted to counts per minute (CPM) on a Topcount® plate reader (Perkin-Elmer, Energy Range: Low, Efficiency Mode Normal, Count Time: 1 min, Background Subtract: none, Cross talk reduction: Off).
Data was analyzed in Excel® (Microsoft®) and ActivityBase® (Idbs®). The reaction in the absence of enzyme was used to determine the background signal, which was subtracted from the enzymatic reactions. […] All data was expressed as a percentage of the positive control. The compound concentration at which the enzyme-catalyzed rate of RNA synthesis was reduced by 50% (IC50) was calculated by fitting

Each structure is given as a SMILES string.

Consider `CC(C)(C)c1cc(-c2ccc[nH]c2=O)cc2c(-c3ccc(CN(CCO)S(C)(=O)=O)cc3)coc12` [Compound I-76, N-{4-[7-tert-Butyl-5-(2-oxo-1,2-dihydro-pyridin-3-yl)-benzofuran-3-yl]-benzyl}-N-(2-hydroxy-ethyl)-methanesulfonamide], for which the melting point is 222 to 224 °C. The same compound had an IC50 in data set [1] of 0.035 µM.
`CN(Cc1ccc(-c2coc3c(C(C)(C)C)cc(-c4ccc[nH]c4=O)cc23)cc1)S(C)(=O)=O` [Compound I-77]: the melting point is 243 to 245 °C. For the same compound, the IC50 in data set [1] came to 0.036 µM.
As to `CC(C)(C)c1cc(-c2ccc[nH]c2=O)cc2c(-c3ccc(NS(C)(=O)=O)cc3)coc12` [Compound I-79, N-{4-[7-tert-Butyl-5-(2-oxo-1,2-dihydro-pyridin-3-yl)-benzofuran-3-yl]-phenyl}-methanesulfonamide], the melting point fell in the range of 182 to 184 °C. The same compound showed an IC50 in data set [1] of 0.027 µM.
Take `CC(=O)Nc1ccc(-c2coc3c(C(C)(C)C)cc(-c4ccc[nH]c4=O)cc23)cc1` [Compound I-80]: the melting point is greater than 300 °C. In addition, the IC50 in data set [1] came to 0.064 µM.
The compound `CC(C)(C)c1cc(-c2ccc[nH]c2=O)cc2c(-c3cccc(CNS(C)(=O)=O)c3)coc12` [Compound I-81] came in with a melting point of 130 to 133 °C. This compound also yielded an IC50 in data set [1] of 0.175 µM.
Regarding `CC(C)(C)c1cc(-c2ccc[nH]c2=O)cc2c(-c3cccc(NS(C)(=O)=O)c3)coc12` [Compound I-82, N-{3-[7-tert-Butyl-5-(2-oxo-1,2-dihydro-pyridin-3-yl)-benzofuran-3-yl]-phenyl}-methanesulfonamide], the melting point lay within 227 to 230 °C. This compound showed a concentration for half-maximal inhibition (IC50) in data set [1] of 0.113 µM.
Compound `CC(C)(C)c1cc(-c2ccc[nH]c2=O)cc2c(C(=O)Nc3cccc(NS(C)(=O)=O)c3)coc12` [Compound I-83] yielded a melting point of 290 to 291 °C. This compound returned an IC50 in data set [1] of 0.201 µM.
`CC(C)(C)c1cc(-c2ccc[nH]c2=O)cc2c(C(=O)Nc3nccs3)coc12` [Compound I-84] yielded a melting point greater than 300 °C. For the same compound, it took 0.357 µM to reach half-maximal inhibition in data set [1] (IC50).
Turning to `CC(C)(C)c1cc(-c2ccc[nH]c2=O)cc2c(C(=O)Nc3cccc(CNS(C)(=O)=O)c3)coc12` [Compound I-85], the melting point was in the range of 237 to 239 °C. In addition, the IC50 in data set [1] came to 0.741 µM.
`CC(C)(C)c1cc(-c2ccc[nH]c2=O)cc2c(-c3ccc(C(N)=O)cc3)coc12` [Compound I-87] returned a melting point of 282 to 284 °C. Besides, the IC50 in data set [1] was found to be 0.002 µM.
`CC(NS(C)(=O)=O)c1ccc(-c2coc3c(C(C)(C)C)cc(-c4ccc[nH]c4=O)cc23)cc1` (centres unmarked) [Compound I-88, N-(1-{4-[7-tert-Butyl-5-(2-oxo-1,2-dihydro-pyridin-3-yl)-benzofuran-3-yl]-phenyl}-ethyl)-methanesulfonamide] came in with a melting point of 255 to 257 °C. Further, the IC50 in data set [1] was determined as 0.008 µM.
Take `CC(C)(C)c1cc(-c2ccc[nH]c2=O)cc2c(-c3cnc(N)nc3)coc12` [Compound I-89]: the melting point was greater than 300 °C. In data set [1], the midpoint of inhibition, the IC50, lay at 0.69 µM.
In the same order, the values of `Cc1ccc(-c2coc3c(C(C)(C)C)cc(-c4ccc[nH]c4=O)cc23)nc1` [Compound I-91, 3-[7-tert-Butyl-3-(5-methyl-pyridin-2-yl)-benzofuran-5-yl]-1H-pyridin-2-one] are 295 to 297 °C and 0.326 µM.
Take `CC(C)(C)c1cc(-c2cc(F)c[nH]c2=O)cc2c(C(=O)N3CC[C@H](CNS(C)(=O)=O)C3)coc12` [Compound I-92]: the melting point is 296 to 298 °C. Moreover, in data set [1], the midpoint of inhibition, the IC50, lay at 0.029 µM.
In the same order, the values of `CC(C)(C)c1cc(-c2ccc[nH]c2=O)cc2c(C(=O)N3CCC3)coc12` [Compound I-94] are greater than 300 °C and 0.148 µM.
In the same order, the values of `CC(C)(C)c1cc(-c2ccc[nH]c2=O)cc2c(C(=O)N3CC(CO)C3)coc12` [Compound I-95] are 292 to 293 °C and 0.043 µM.
In the same order, the values of `CC(C)(C)c1cc(-c2ccc[nH]c2=O)cc2c(-c3ccc(N)nc3)coc12` [Compound I-96, 3-[3-(6-Amino-pyridin-3-yl)-7-tert-butyl-benzofuran-5-yl]-1H-pyridin-2-one] are 255 to 257 °C and 0.047 µM.
Compound `COCc1cc(CNS(C)(=O)=O)ccc1-c1coc2c(C(C)(C)C)cc(-c3ccc[nH]c3=O)cc12` [Compound I-97, N-{4-[7-tert-Butyl-5-(2-oxo-1,2-dihydro-pyridin-3-yl)-benzofuran-3-yl]-3-methoxymethyl-benzyl}-methanesulfonamide] yielded a melting point of 128 to 130 °C. The compound also showed an IC50 in data set [1] of 0.515 µM.
In turn, `Cc1ccc(-c2cc(C(C)(C)C)c3occ(C(=O)N4CC[C@H](CNS(C)(=O)=O)C4)c3c2)c(=O)[nH]1` [Compound I-98] had a melting point of 178 to 180 °C. In data set [1], this compound displayed an IC50 of 0.016 µM.
Turning to `CC(C)(C)c1cc(-c2ccc[nH]c2=O)cc2c(C(=O)N3CCC(NS(C)(=O)=O)CC3)coc12` [Compound I-99], the melting point was in the range of 193 to 195 °C. The compound also showed an IC50 in data set [1] of 0.876 µM.
In the same order, the values of `CC(C)(C)c1cc(-c2ccc[nH]c2=O)cc2c(C(=O)N3CC(O)C3)coc12` [Compound I-102] are 264 to 266 °C and 0.135 µM.
As for `CN(CC1CCCN(C(=O)c2coc3c(C(C)(C)C)cc(-c4ccc[nH]c4=O)cc23)C1)S(C)(=O)=O` (centres unmarked) [Compound I-104], the melting point fell in the range of 155 to 157 °C. For the same compound, in data set [1], the IC50 was determined as 0.02 µM.
`CN(C[C@H]1CCN(C(=O)c2coc3c(C(C)(C)C)cc(-c4ccc[nH]c4=O)cc23)C1)S(C)(=O)=O` [Compound I-105, N-{(S)-1-[7-tert-Butyl-5-(2-oxo-1,2-dihydro-pyridin-3-yl)-benzofuran-3-carbonyl]-pyrrolidin-3-ylmethyl}-N-methyl-methanesulfonamide] displayed a melting point of 155 to 157 °C. The compound also gave a half-maximal inhibitory concentration (IC50) in data set [1] of 0.025 µM.
In the same order, the values of `CCS(=O)(=O)NC[C@H]1CCN(C(=O)c2coc3c(C(C)(C)C)cc(-c4ccc[nH]c4=O)cc23)C1` [Compound I-106] are 240 to 242 °C and 0.017 µM.
The compound `CC(C)(C)c1cc(-c2ccc[nH]c2=O)cc2c(C(=O)N3CC[C@H](CNS(=O)(=O)C4CC4)C3)coc12` [Compound I-107] displayed a melting point of 158 to 160 °C. This compound had an IC50 in data set [1] of 0.017 µM.
For the compound `CC(C)S(=O)(=O)NC[C@H]1CCN(C(=O)c2coc3c(C(C)(C)C)cc(-c4ccc[nH]c4=O)cc23)C1` [Compound I-108], the melting point was in the range of 163 to 165 °C. In addition, in data set [1], the IC50 is 0.025 µM.
In the same order, the values of `Cn1cc(C(=O)N2CC[C@H](CNS(C)(=O)=O)C2)c2cc(-c3ccc[nH]c3=O)cc(C(C)(C)C)c21` [Compound I-111, N-{(S)-1-[7-tert-Butyl-1-methyl-5-(2-oxo-1,2-dihydro-pyridin-3-yl)-1H-indole-3-carbonyl]-pyrrolidin-3-ylmethyl}-methanesulfonamide] are 168 to 170 °C and 0.008 µM.
The compound `Cn1cc(C(N)=O)c2cc(-c3ccc[nH]c3=O)cc(C(C)(C)C)c21` [Compound I-112] returned a melting point of 232 to 234 °C. In addition, half-maximal inhibition in data set [1] (IC50) required 0.778 µM.

What is called IC50 is the point on the concentration scale where inhibition reaches its midpoint. Read a low IC50 as greater potency. In general, melting point refers to the temperature of the solid-liquid transition.
